Data taken from ChEMBL document CHEMBL4321837, “Discovery of Potent and Orally Effective Dual Janus Kinase 2/FLT3 Inhibitors for the Treatment of Acute Myelogenous Leukemia and Myeloproliferative Neoplasms” (J Med Chem, 2019).
The source made the active and inactive calls. No cut-off for these calls is given here.

What was measured:
MV4-11 [1] = assay: Induction of apoptosis in human MV4-11 cells assessed as early apoptotic cells at 0.2 uM after 24 hrs by Annexin V FITC/PI staining based flow cytometry analysis (reference value: 2.14%); assay type: functional
[2] = target: Receptor-type tyrosine-protein kinase FLT3 (Homo sapiens, UniProt P36888, D835Y); assay: Inhibition of recombinant human FLT3 D835Y mutant (564 to end residues) using EAIYAAPFAKKK as substrate incubated for 40 mins in presence of [gamma33P]-ATP by scintillation counting based radiometry assay
SET-2 [3] = assay: Antiproliferative activity against human SET2 cells overexpressing JAK2 […] mutant assessed as reduction in cell growth after 72 hrs by MTT assay; assay type: functional, cell-based; details: SET-2, 72 h
MV4-11 [4] = assay: Induction of cell cycle arrest in human MV4-11 cells assessed as accumulation at S phase at 0.1 uM after 24 hrs by propidium iodide staining based flow cytometry analysis (reference value: 30.11%); assay type: functional
MV4-11 [5] = assay: Induction of cell cycle arrest in human MV4-11 cells assessed as accumulation at G0/G1 phase at 0.005 uM after 24 hrs by propidium iodide staining based flow cytometry analysis (reference value: 54.49%); assay type: functional
[6] = target: Vascular endothelial growth factor receptor 3 (Homo sapiens, UniProt P35916); assay: Inhibition of recombinant human FLT4 (800 to 1297 residues) using poly(Glu:Tyr) as substrate incubated for 30 mins in presence of [gamma33P]-ATP by scintillation counting based radiometry assay
Chain of Vascular endothelial growth factor receptor 3 (P35916 whole entry, the tested form may be a part): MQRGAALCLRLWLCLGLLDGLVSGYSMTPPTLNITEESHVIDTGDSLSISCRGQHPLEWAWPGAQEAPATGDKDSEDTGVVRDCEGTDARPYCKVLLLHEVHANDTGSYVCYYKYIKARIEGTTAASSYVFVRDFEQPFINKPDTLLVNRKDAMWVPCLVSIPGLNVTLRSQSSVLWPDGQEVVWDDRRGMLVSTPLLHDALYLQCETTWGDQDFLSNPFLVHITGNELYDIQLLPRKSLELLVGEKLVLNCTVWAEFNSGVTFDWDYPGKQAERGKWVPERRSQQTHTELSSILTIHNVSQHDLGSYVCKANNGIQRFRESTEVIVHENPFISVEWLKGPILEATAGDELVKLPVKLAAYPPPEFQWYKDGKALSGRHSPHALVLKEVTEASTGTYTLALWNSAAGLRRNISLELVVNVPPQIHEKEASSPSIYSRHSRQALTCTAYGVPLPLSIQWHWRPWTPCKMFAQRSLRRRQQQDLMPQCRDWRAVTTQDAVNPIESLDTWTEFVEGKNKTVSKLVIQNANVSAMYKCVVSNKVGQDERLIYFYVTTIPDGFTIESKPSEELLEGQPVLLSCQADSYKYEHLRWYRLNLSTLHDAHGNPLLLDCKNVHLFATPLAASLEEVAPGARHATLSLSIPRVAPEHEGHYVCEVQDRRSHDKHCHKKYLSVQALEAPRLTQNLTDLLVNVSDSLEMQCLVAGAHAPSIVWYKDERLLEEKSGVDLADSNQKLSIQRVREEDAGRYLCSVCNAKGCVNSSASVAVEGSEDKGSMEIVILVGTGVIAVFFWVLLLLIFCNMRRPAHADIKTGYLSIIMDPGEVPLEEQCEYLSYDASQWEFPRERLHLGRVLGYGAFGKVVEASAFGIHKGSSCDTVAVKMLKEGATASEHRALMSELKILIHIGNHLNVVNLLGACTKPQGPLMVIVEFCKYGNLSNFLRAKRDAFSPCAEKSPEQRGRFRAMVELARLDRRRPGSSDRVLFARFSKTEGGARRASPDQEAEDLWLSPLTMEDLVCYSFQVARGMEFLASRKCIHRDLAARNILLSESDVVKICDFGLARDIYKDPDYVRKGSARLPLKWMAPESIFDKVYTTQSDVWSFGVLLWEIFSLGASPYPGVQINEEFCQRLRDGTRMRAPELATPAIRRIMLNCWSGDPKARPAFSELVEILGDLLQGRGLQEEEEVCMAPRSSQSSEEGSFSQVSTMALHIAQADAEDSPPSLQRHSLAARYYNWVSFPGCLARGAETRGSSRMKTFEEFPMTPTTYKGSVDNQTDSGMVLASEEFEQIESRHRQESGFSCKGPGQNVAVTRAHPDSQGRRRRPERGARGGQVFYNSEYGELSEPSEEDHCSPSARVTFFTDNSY

MV4-11 [7] = assay: Induction of cell cycle arrest in human MV4-11 cells assessed as accumulation at G0/G1 phase at 0.01 uM after 24 hrs by propidium iodide staining based flow cytometry analysis (reference value: 54.49%); assay type: functional
[8] = AUC (0 to t) in Sprague-Dawley rat at 5 mg/kg, po measured up to 24 hrs by LC/MS/MS analysis; assay type: ADME, organism-based; set-up: dose 5 mg/kg, time < 24 hr, route oral; details: in vivo, 24 h
MV4-11 [9] = assay: Induction of apoptosis in human MV4-11 cells assessed as viable cells at 0.2 uM after 24 hrs by Annexin V FITC/PI staining based flow cytometry analysis (reference value: 96.3%); assay type: functional; details: MV4-11, 24 h, read-out: Activity
MV4-11 [10] = assay: Induction of cell cycle arrest in human MV4-11 cells assessed as accumulation at S phase at 0.005 uM after 24 hrs by propidium iodide staining based flow cytometry analysis (reference value: 30.11%); assay type: functional
MV4-11 [11] = assay: Induction of apoptosis in human MV4-11 cells assessed as necrotic cells at 0.2 uM after 24 hrs by Annexin V FITC/PI staining based flow cytometry analysis (reference value: 0.18%); assay type: functional
[12] = target: Tyrosine-protein kinase JAK1 (Homo sapiens, UniProt P23458); assay: Inhibition of human JAK1 (866 to end residues) GEEPLYWSFPAKK as substrate after 40 mins in presence of [gamma33P]-ATP by scintillation counting based radiometric assay
MV4-11 [13] = assay: Induction of cell cycle arrest in human MV4-11 cells assessed as accumulation at S phase at 0.05 uM after 24 hrs by propidium iodide staining based flow cytometry analysis (reference value: 30.11%); assay type: functional
[14] = Intrinsic clearance in rat liver microsomes; assay type: ADME, Microsome
[15] = Anti-myelofibrosis activity against mouse BAF3(transformed) cells harboring with JAK2 V617F mutant allografted in NOD/SCID mouse assessed as reduction in liver weight at 60 mg/kg, po qd for 20 days measured on day 25 relative to control; assay type: functional
[16] = Intrinsic clearance in human liver microsomes; assay type: ADME, Microsome
Homo sapiens = organism: Homo sapiens; assay: Inhibition of JAK2 V617F mutant/FLT3 in human SET2 cells assessed as reduction in STAT5 phosphorylation at 0.2 uM after 2 hrs by Western blot analysis; assay type: cell-based
[17] = Cmax in Sprague-Dawley rat at 5 mg/kg, po measured up to 24 hrs by LC/MS/MS analysis; assay type: ADME, organism-based; set-up: dose 5 mg/kg, route oral; details: in vivo, 24 h
MV4-11 [18] = assay: Antitumor activity against FLT3-ITD-positive human MV4-11 cells xenografted in NOD/SCID mouse assessed as tumor growth inhibition at 30 mg/kg, po qd for 14 days measured every 2 days for 14 days by caliper method relative to control; assay type: functional; details: MV4-11, po, read-out: TGI
MV4-11 [19] = assay: Induction of cell cycle arrest in human MV4-11 cells assessed as accumulation at G0/G1 phase at 0.05 uM after 24 hrs by propidium iodide staining based flow cytometry analysis (reference value: 54.49%); assay type: functional
Cytochrome P450 2C9 = Cytochrome P450 2C9 (Homo sapiens, UniProt P11712); assay: Inhibition of CYP2C9 (unknown origin); assay type: ADME
Chain of Cytochrome P450 2C9 (P11712 whole entry): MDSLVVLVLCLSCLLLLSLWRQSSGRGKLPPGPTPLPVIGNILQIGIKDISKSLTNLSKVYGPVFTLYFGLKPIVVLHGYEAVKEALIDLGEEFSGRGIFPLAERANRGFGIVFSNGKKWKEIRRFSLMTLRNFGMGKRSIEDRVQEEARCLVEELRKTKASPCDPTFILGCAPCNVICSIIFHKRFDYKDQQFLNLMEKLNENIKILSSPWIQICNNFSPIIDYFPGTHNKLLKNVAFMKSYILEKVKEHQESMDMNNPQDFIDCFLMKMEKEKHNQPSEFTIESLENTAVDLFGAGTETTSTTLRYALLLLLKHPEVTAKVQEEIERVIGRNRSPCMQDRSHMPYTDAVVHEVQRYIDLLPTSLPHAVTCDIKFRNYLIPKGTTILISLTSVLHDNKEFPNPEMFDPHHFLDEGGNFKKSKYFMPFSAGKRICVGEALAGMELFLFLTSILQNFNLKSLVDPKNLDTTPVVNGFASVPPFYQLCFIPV

[20] = target: Tyrosine-protein kinase JAK2 (Homo sapiens, UniProt O60674); assay: Inhibition of human JAK2 (808 to end residues) assessed as residual activity at 100 nM using KTFCGTPEYLAP as substrate after 40 mins in presence of [gamma33P]-ATP by scintillation counting based radiometric assay relative to control
Chain of Tyrosine-protein kinase JAK2 (O60674 whole entry): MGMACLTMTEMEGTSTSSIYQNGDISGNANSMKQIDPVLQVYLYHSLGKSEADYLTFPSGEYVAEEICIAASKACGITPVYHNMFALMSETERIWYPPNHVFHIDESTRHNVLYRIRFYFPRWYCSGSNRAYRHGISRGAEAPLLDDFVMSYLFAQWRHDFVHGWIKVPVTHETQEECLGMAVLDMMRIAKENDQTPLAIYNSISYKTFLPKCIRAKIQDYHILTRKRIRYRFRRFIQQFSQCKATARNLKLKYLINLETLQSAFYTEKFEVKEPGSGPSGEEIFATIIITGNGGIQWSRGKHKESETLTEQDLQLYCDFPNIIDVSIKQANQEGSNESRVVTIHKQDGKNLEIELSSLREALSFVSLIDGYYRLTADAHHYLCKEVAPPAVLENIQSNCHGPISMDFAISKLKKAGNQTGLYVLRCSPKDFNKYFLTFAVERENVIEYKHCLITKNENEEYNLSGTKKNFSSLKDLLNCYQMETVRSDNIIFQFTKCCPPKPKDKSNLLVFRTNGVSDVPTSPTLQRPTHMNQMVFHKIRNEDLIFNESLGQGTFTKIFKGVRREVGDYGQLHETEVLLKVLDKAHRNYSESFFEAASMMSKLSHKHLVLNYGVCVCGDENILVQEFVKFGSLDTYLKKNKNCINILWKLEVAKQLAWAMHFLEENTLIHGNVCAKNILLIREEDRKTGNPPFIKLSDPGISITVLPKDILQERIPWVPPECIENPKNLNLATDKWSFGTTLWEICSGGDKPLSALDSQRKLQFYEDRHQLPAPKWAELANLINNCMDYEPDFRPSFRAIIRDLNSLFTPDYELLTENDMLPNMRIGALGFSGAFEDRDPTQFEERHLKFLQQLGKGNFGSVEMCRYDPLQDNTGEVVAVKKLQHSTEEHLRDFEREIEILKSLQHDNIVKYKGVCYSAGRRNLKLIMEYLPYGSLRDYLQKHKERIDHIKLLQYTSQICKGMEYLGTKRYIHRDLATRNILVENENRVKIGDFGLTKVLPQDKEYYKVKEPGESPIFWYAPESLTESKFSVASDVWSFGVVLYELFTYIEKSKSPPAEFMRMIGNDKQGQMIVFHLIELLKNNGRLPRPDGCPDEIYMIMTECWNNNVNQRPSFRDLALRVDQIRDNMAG

[21] = Half life in human liver microsomes; assay type: ADME, Microsome
CDK4/Cyclin D3 = CDK4/Cyclin D3 (Homo sapiens, UniProt P11802); assay: Inhibition of recombinant full length human CDK4/CyclinD3 using Rb fragment as substrate incubated for 30 mins in presence of [gamma33P]-ATP by scintillation counting based radiometry assay; assay type: protein-complex assay
Chain of CDK4/Cyclin D3 (P11802 whole entry, the tested form may be a part): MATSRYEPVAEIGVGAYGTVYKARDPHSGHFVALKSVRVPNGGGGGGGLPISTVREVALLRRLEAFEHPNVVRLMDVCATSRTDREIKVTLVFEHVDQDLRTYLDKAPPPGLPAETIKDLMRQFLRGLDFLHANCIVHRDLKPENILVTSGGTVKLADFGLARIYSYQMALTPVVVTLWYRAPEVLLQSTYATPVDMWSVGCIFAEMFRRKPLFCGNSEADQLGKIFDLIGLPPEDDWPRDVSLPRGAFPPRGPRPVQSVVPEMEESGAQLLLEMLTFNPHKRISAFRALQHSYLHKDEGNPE
Chain of CDK4/Cyclin D3 (P30281 whole entry, further chain, the tested form may be a part): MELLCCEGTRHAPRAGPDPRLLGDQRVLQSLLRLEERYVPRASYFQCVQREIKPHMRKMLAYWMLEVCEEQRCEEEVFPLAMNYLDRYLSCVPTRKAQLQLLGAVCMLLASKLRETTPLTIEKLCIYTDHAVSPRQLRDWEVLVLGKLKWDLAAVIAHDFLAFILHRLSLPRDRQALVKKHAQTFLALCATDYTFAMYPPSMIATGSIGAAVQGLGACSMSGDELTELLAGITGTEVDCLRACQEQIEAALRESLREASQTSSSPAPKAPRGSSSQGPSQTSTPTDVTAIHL

MV4-11 [22] = assay: Induction of cell cycle arrest in human MV4-11 cells assessed as accumulation at G2/M phase at 0.05 uM after 24 hrs by propidium iodide staining based flow cytometry analysis (reference value: 15.4%); assay type: functional
MV4-11 [23] = assay: Induction of apoptosis in human MV4-11 cells assessed as late apoptotic cells at 0.2 uM after 24 hrs by Annexin V FITC/PI staining based flow cytometry analysis (reference value: 1.38%); assay type: functional
MV4-11 [24] = assay: Induction of cell cycle arrest in human MV4-11 cells assessed as accumulation at G2/M phase at 0.01 uM after 24 hrs by propidium iodide staining based flow cytometry analysis (reference value: 15.4%); assay type: functional
HUVEC = assay: Cytotoxicity against HUVEC assessed as cell viability after 72 hrs by MTT assay; assay type: cell-based; details: human
Cytochrome P450 2C19 = Cytochrome P450 2C19 (Homo sapiens, UniProt P33261); assay: Inhibition of CYP2C19 (unknown origin); assay type: ADME
Chain of Cytochrome P450 2C19 (P33261 whole entry): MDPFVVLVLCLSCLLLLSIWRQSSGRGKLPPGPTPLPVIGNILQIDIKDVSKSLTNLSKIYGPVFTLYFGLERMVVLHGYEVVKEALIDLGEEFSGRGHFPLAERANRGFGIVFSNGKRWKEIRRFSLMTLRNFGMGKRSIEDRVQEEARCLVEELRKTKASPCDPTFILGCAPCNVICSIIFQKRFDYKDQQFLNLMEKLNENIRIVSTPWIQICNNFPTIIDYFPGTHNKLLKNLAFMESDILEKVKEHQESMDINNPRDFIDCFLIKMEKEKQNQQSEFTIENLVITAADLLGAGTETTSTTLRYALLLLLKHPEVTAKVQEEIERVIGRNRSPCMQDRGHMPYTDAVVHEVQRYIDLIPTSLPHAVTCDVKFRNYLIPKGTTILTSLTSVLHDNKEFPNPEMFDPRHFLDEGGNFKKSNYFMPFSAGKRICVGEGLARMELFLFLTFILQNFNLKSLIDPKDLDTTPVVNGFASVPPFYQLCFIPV

[25] = target: Vascular endothelial growth factor receptor 1 (Homo sapiens, UniProt P17948); assay: Inhibition of recombinant human FLT1 (783 to end residues) using KKKSPGEYVNIEF as substrate incubated for 40 mins in presence of [gamma33P]-ATP by scintillation counting based radiometry assay
[26] = Anti-myelofibrosis activity against mouse BAF3(transformed) cells harboring with JAK2 V617F mutant allografted in NOD/SCID mouse assessed as reduction in spleen weight at 60 mg/kg, po qd for 20 days measured on day 25 relative to control; assay type: functional
SET-2 [27] = assay: Antitumor activity against human SET2 cells overexpressing JAK2 V617F mutant xenografted in NOD/SCID mouse assessed as tumor growth inhibition at 60 mg/kg, po qd for 18 days measured every 2 days for 18 days by caliper method relative to control; assay type: functional; details: SET-2, po, read-out: TGI
MV4-11 [28] = assay: Induction of apoptosis in human MV4-11 cells after 24 hrs by Annexin V FITC/PI staining based flow cytometry analysis; assay type: functional, cell-based

In the case of `Cc1cnc(Nc2ccc(N3CCC(N(C)CCO)CC3)c(F)c2)nc1-c1cnn(C(C)C)c1`, the Activity (MV4-11 [1]) is reported as 11.9%, the IC50 [2] is reported as 4 nM and the IC50 (SET-2 [3]) is reported as 270 nM. For the same compound, the Activity (MV4-11 [4]) was 10.26%, the Activity (MV4-11 [5]) was 55.92% and the IC50 [6] was 8 nM. For the same compound, the Activity (MV4-11 [7]) was 58.55%, the AUCt [8] was 2552 ng·h/mL and the viability at 0.2 µM (MV4-11 [9]) was 77.4%. The Activity (MV4-11 [10]) was 28.22%, the Activity (MV4-11 [11]) was 0.75% and the IC50 [12] was 26 nM. The Activity (MV4-11 [13]) was 12.84%, the CLH [14] was 0.9 µL/min/mg and the inhibition in vivo at 60 mg/kg [15] was 94.3%. For the same compound, the CLH [16] was 2.4 µL/min/mg, the inhibition (Homo sapiens) was “Active” and the Cmax [17] was 102 ng/mL. For the same compound, the inhibition in vivo at 30 mg/kg (MV4-11 [18]) was 58%, the Activity (MV4-11 [19]) was 81.64% and the IC50 (Cytochrome P450 2C9) was 78100 nM. It also gave an Activity [20] of 0%, a half-life [21] of 4.81 h and an IC50 (CDK4/Cyclin D3) of 18 nM. For the same compound, the Activity (MV4-11 [22]) was 5.51%, the Activity (MV4-11 [23]) was 9.88% and the Activity (MV4-11 [24]) was 11.8%. For the same compound, the Activity (HUVEC) was “Non-Toxic”, the IC50 (Cytochrome P450 2C19) was 74700 nM and the IC50 [25] was 22 nM. For the same compound, the inhibition in vivo at 60 mg/kg [26] was 59.5%, the inhibition in vivo at 60 mg/kg (SET-2 [27]) was 85% and the Activity (MV4-11 [28]) was “Dose-dependent effect”.
